Results reported in patent US20210220376A1, “ADDICTION TREATMENT OF AN ALCOHOL-CONSUMING PATIENT POPULATION” (Amygdala Neurosciences, Inc., priority 2018, published 2021).

How the values were obtained:
[1] = Phase 1 study of compound (2) with ethanol: pharmacokinetics of compound (1) and breath alcohol; settings: after repeated EtOH administration
Excerpt: Plasma concentrations of compound (1) and BrAC were summarized and listed by treatment, subject and timepoint. Pharmacokinetic parameters derived for compound (1) were also summarized and listed by treatment and subject. Pharmacokinetic parameters were estimated using a non-compartmental approach with a log-linear terminal phase assumption. The trapezoidal rule was used to estimate the area under the curve (linear trapezoidal linear interpolation) and the terminal phase will be estimated by maximizing the coefficient of determination estimated from the log-linear regression model. However, AUC0-∞, AUClast/∞, λz and t1/2 parameters were to be estimated for individual concentration-time profiles only when the terminal log-linear phase could be reliably characterized.
Proportionality analysis was done using a power model. The power model was defined as: […]
A linear model with ln-transformed dose as a continuous effect was fitted. A point estimate and a 90% CI was derived for the slope (β). The parameter could be considered to be dose proportional if the 90% confidence interval of the slope β was within [1+ln(0.8)/ln(r), 1+ln(1.25)/ln(r)], where r=the highest dose studied/the lowest dose (Smith et al., “Confidence interval criteria for assessment of dose proportionality.” Pharm Res. 17 (10):1278-83 (2000)).

human ALDH-2 enzyme = molecular target: T1, human ALDH-2 enzyme (Homo sapiens, UniProt P05091); settings: read-out: IC50 ALDH-2; cited from earlier work
T1 sequence (P05091 18-517): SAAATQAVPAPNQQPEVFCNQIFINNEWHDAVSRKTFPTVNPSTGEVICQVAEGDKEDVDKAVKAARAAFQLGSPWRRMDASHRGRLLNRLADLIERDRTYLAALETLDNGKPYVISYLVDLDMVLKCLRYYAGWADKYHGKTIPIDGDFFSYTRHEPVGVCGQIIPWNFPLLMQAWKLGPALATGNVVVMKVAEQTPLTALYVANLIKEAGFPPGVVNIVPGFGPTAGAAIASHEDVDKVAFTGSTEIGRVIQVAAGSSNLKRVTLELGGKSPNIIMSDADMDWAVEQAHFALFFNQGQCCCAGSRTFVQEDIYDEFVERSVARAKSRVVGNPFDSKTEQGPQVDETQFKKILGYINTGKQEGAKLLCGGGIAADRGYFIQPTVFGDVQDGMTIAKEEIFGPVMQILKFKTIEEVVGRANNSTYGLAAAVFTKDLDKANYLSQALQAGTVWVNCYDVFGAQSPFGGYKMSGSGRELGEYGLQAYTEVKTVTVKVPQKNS

For O=C(NCc1ccc(-c2ccn(COP(=O)(O)O)c(=O)c2)cc1)c1c(Cl)cccc1Cl [Compound (2), phosphoric acid mono-(4-{4-[(2,6-dichloro-benzoylamino)-methyl]-phenyl}-2-oxo-2H-pyridin-1-ylmethyl) ester], the “peak breath alcohol concentrations compared with placebo” value [1] is given as “slightly higher” and the IC50 (human ALDH-2 enzyme) is given as over 10 µM.
